Measurements published in patent publication US12146143B2, “Method for producing transformed plant and transformation agent” (priority 2019, dated 2024).

Experiments:
[1] = system: quinoa (Kd, ghy, rebc, and ghy/rebc); experiment: Floral dip/non-cutting-sealing method using improved bacterium, GUS staining of female organs; assay type: in vivo, Chenopodium quinoa; conditions: mutant ghy/rebc
Method: Bacteria used in the experiment were streaked on LB solid medium supplemented with 100 mg/L kanamycin and 100 mg/L hygromycin, and was cultured at 26° C. under a 24-h dark condition for 2 days (Table 3). The proliferated bacteria were transferred to 50 mL of LB liquid medium supplemented with 100 mg/L kanamycin and 100 mg/L hygromycin (in a 300 mL Erlenmeyer flask), and were cultured using a shaking thermostatic water bath BW201 under the conditions of 26° C., about 24 hours, and about 130 rpm. After the culture, the bacterial culture suspension (OD600=about 2.0) was transferred to a 50 mL conical tube, and centrifuged using Mx-301 Highspeed Refrigerated Micro Centrifuge (10 minutes, […]). The supernatant was discarded, followed by addition of 20 mL of a 5% (w/v) sucrose solution containing Silwet L-77 and resuspension using VORTEX-GENIE 2 to produce a bacterial suspension (results shown in Example 1 and results shown in Example 3 were obtained by inoculation experiments using Silwet L-77 at 0.02% (v/v) and 0.04% (v/v), respectively). At the time of inoculation with the bacterial suspension, quinoa to be used was placed in a sealed container (Mippail (Fuji System Pack, Tokyo, Japan)) filled with water, and the bacterial suspension was dropped onto an ear using P200 Pipetman (Gilson, Manhattan, NY, USA). […]

[2] = system: calluses of the mutant ghy; experiment: Redifferentiation from calluses with plant hormones; assay type: cell-based, Chenopodium quinoa
Method: A medium was produced by partially modifying spinach redifferentiation medium composition reported in the literature (Jinhua Bao (2009) Establishment of Transformation System for Spinach based on Agrobacterium Method and Introduction of Useful Gene, Chiba University Graduate School doctoral dissertation), and was used in the experiment (Table 2). Non-transformed calluses induced from seedling sections of the Kd variety were cultured under preset conditions shown in Table 13. A “+” group for the redifferentiation inducing light condition was cultured in an incubator at 20° C. under 8-h light/16-h dark conditions, and a “−” group was placed in a steel can in an incubator under the same conditions, and was cultured under a light-shielding condition. In groups with GA concentrations of 1 and 2, non-transformed calluses were plated on redifferentiation media supplemented with gibberellin at 1 mg/L and 2 mg/L, respectively.
Transformed calluses were successfully formed in the mutant ghy variety incapable of synthesizing betalain pigments. In view of this, an attempt was made to induce redifferentiation from calluses of the mutant ghy. 2,4-Dichlorophenoxyacetic acid (2,4-D) serving as a plant hormone having an auxin-like action, and benzyladenine and kinetin each serving as a plant hormone having a cytokinin-like action were combined at various concentrations, and redifferentiation was attempted. […] In addition, when the concentrations of both of 2,4-D and the cytokinin-like plant hormone (benzyladenine or kinetin) were increased, hard and rounded calluses were obtained. […] However, redifferentiation of any other organ was not found.

Question: For `CC1=CC(=O)CC(C)(C)[C@@]1(O)/C=C/C(C)=C\C(=O)O` [ABA, Abscisic acid], which “Individuals exhibiting female organ-specific GUS expression” value ([1]; 500 mM ABA added to suspension of MAFF311303pTiMAFF301276ΔT-DNA, without cutting-sealing) is on record?
Answer: 60%

Question: What about the “Female organ-specific GUS expression ratio relative to the case of adding no ABA” value ([1]; 500 mM ABA vs no ABA) of the same compound?
Answer: 6 times

Question: How did the “Elongation of adventitious roots” value ([2]; medium containing only 1 mg/L kinetin) turn out when `c1coc(CNc2ncnc3[nH]cnc23)c1` [kinetin] was run?
Answer: showed remarkable elongation of adventitious roots

Question: With `c1ccc(CNc2ncnc3nc[nH]c23)cc1` [benzyladenine] as the compound, how does the Colour of calluses ([2]; calluses plated in media containing the hormone) read?
Answer: turned darker green

Question: What about the “Redifferentiation of adventitious roots” value ([2]; medium containing only 1 mg/L or 2 mg/L benzyladenine) of the same compound?
Answer: adventitious roots were redifferentiated

Question: For `O=C(O)COc1ccc(Cl)cc1Cl` [2,4-D, 2,4-Dichlorophenoxyacetic acid], which “Redifferentiation of adventitious roots” value ([2]; medium containing only 0.01 mg/L or 0.1 mg/L 2,4-D) is on record?
Answer: adventitious roots were redifferentiated
